Format in all cases: cell-based
One experiment relates to HaCaT keratinocytes. Briefly: SRB colorimetric assay, growth of HaCaT keratinocytes. The conditions noted are these: 10 ng/ml or 1,000 ng/ml, 72 hr, serum-free medium, absorbance at 590 nm, FIG. 3a. The protocol: (§1) In order to evaluate four peptides prepared in Preparation Examples 1-2 whether they have similar activities of growth factor-1, SRB (Sulforhodamine B; Sigma-Aldrich) colorimetric assay was carried out using HaCaT keratinocytes and NIH3T3 fibroblasts according to Rizzino et al. method (Rizzino, et al. Cancer Res., 48: 4266 (1988)).
(§2) HaCaT keratinocytes (The Korean Cell Line Bank) and NIH3T3 fibroblasts (The Korean Cell Line Bank) were cultured in 250 ml-flasks containing EMEM (Eagle's minimal essential media; Gibco, U.S.A.) supplemented with 10% FBS (fetal bovine serum). Cells cultured were treated with 0.25% trypsin solution to detach cells from the bottom of culture flasks and centrifuged to collect cell pellets. After cells were resuspended in EMEM not containing FBS, its aliquot (4×10^3 cells)was added to each well of 96-well plates and cultured under 7% CO2 for 24 hr at 37° C. After 24-hr culture, the medium was changed with a fresh medium not containing serum and cells were incubated with human aFGF (NIBSC, UK) or four peptides synthesized (10 ng/ml or 1,000 ng/ml) dissolved in water and 10% DMSO for 72 hr under the same conditions as described above. After removing supernatants, cells were washed once using PBS (phosphate buffered saline) and incubated with SRB solution. Cells were sufficiently washed with PBS and observed under a microscope to find cell viability. In addition, absorbance at 590 nm was measured to analyze cell proliferation.
FIG. 3a and FIG. 3b represent the analysis data for growth of keratinocytes and fibroblasts, respectively. FIG. 4 represents the growth pattern of keratinocytes and fibroblasts observed under microscope after 72 hr-treatment with peptides.
(In general: In SRB staining, fixed cells bind dye roughly in proportion to their protein.)

For the next experiment, the system named is NIH3T3 fibroblasts. Briefly: SRB colorimetric assay, growth of NIH3T3 fibroblasts. The settings on record: NIH3T3, 10 ng/ml or 1,000 ng/ml, 72 hr, serum-free medium, absorbance at 590 nm, FIG. 3b. The protocol: as §1
as §2, with “Cells were sufficiently washed with PBS and observed under a microscope to find cell viability.” left out, “proliferation. […]” for “proliferation.”

The next experiment concerns fibronectin. Briefly: Fibronectin ELISA in HaCaT keratinocytes. The conditions noted are these: HaCaT incubated with peptides for 72 hr, FIG. 5b. The method, then:
(§3) HaCaT keratinocytes cultured for 48 hr were incubated with the peptides of the present invention for 72 hr. The levels of procollagen and fibronectin, indicators to show the improvement in skin wrinkle, were examined. The quantification was performed using Procollagen ELISA kit (Takara, Japan) and Fibronectin ELISA kit (CHEMICON, USA).
In general terms: In an ELISA, binding on a coated surface is turned into a signal by an enzyme label.

For a further experiment, the system named is procollagen. The experiment can be described thus: Procollagen ELISA in HaCaT keratinocytes. The conditions noted are these: HaCaT incubated with peptides for 72 hr, FIG. 5a. The protocol:
as §3

Where no end group is shown, it is not given here.

Take Ac-YKSKKGGWTH [peptide 1]: the growth of keratinocytes result in the experiment with HaCaT keratinocytes is “much better effects on growth of keratinocytes”. In the experiment with NIH3T3 fibroblasts, the growth of fibroblasts entry is given as “excellent effects on growth of fibroblasts”. Further, in the experiment on fibronectin, the “level of fibronectin in keratinocytes” value is recorded as “strikingly facilitate the production of procollagen”.
In the case of “DSHTQYCFHGT [compound 3, corresponds to amino acids 10-20 of TGF-α]”, the growth of keratinocytes entry in the experiment with HaCaT keratinocytes is “much better effects on growth of keratinocytes”.
For the substance “GYVGVRCEAADLDA [compound 4, corresponds to amino acids 38-49 of TGF-α]”, the growth of keratinocytes entry in the experiment with HaCaT keratinocytes was “much better effects on growth of keratinocytes”. The “level of fibronectin in keratinocytes” value in the experiment on fibronectin was “strikingly facilitate the production of procollagen”.
For the substance “YISKKHAGKNWF [corresponds to amino acids 111-122 of aFGF]”, the “level of procollagen in keratinocytes” value in the experiment with procollagen is given as “remarkably promote the production of procollagen”. In the experiment on NIH3T3 fibroblasts, the growth of fibroblasts entry was “excellent effects on growth of fibroblasts”.

(Values after patent publication US8501689B2, “Growth factor-mimicking peptides and uses thereof” (Caragen Co., Ltd., priority 2008, dated 2013).)
